Here are results for 7 molecules from the supplement of paper PMC12370961.

Experiment in all cases: differential drug sensitivity score (dDSS) relative to sarcoma reference cohort mean DSS (DSS units (0-100 scale difference)); higher = more selective sensitivity than reference sarcomas
Holding throughout (details): exposure time: 72 h; concentration range: 10-10000 nM

The test system of one test is CDS-ZH002 (patient-derived CIC-DUX4 sarcoma tumoroid). The procedure: (§1)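 Drug response profiling of patient-derived Ewing sarcoma and CIC::DUX4 sarcoma tumoroid models (or cells tested directly after isolation from the tumor, 'direct'). The DSS is the normalised AUC (0-100); dDSS is the sample DSS minus the mean DSS of a 34-sarcoma reference cohort profiled in the same lab.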
For a further test, the system named is CDS-ZH002 direct (CIC-DUX4 sarcoma cells right after isolation). As for the experimental part: as §1
In a further test the test system is ES-ZH001 (patient-derived Ewing sarcoma tumoroid). As for the experimental part: as §1
Another test has as its system ES-ZH007 (patient-derived Ewing sarcoma tumoroid). The procedure: as §1
The next test deals with ES-ZH009 (patient-derived Ewing sarcoma tumoroid). The procedure:
as §1

The test system of another test is ES-ZH002 (patient-derived Ewing sarcoma tumoroid). As for the experimental part:
as §1

The next test has as its system ES-ZH008 (patient-derived Ewing sarcoma tumoroid). The procedure:
as §1

A further test has as its system CDS-ZH001-2 (patient-derived CIC-DUX4 sarcoma tumoroid). The procedure: as §1
The subject of a further test is CDS-ZH003 (patient-derived CIC-DUX4 sarcoma tumoroid). The procedure: as §1
A further test concerns ES-ZH016 direct (Ewing sarcoma cells right after isolation). As for the experimental part:
as §1

A further test concerns CDS-ZH001 (patient-derived CIC-DUX4 sarcoma tumoroid). The procedure:
as §1

In another test the test system is ES-ZH016 (patient-derived Ewing sarcoma tumoroid). The procedure:
as §1

A further test has as its system ES-ZH004 (patient-derived Ewing sarcoma tumoroid). The procedure: as §1

As to `C#Cc1cccc(Nc2ncnc3cc(OCCOC)c(OCCOC)cc23)c1` [Erlotinib], the “differential drug sensitivity score” value in the test with CDS-ZH002, in the test with CDS-ZH002 direct, in the test on ES-ZH001, in the test with ES-ZH007, in the test with ES-ZH009 and with ES-ZH002 was -1.1 in each case. Besides, the “differential drug sensitivity score” value with ES-ZH008, in the test with CDS-ZH001-2, with CDS-ZH003, in the test with ES-ZH016 direct, in the test on CDS-ZH001 and in the test with ES-ZH016 was -1.1 in each case. Besides, the “differential drug sensitivity score” value in the test on ES-ZH004 is -1.1.
Regarding `O=C(NCCCNc1nc(Nc2cccc(NC(=O)N3CCCC3)c2)ncc1I)c1cccs1` [BX-795], the “differential drug sensitivity score” value in the test on CDS-ZH002 is -1.9; with CDS-ZH002 direct it was -2.6; in the test on ES-ZH001 it was 3.7; in the test with ES-ZH007, 0; with ES-ZH009 it was 1.1; in the test on ES-ZH002, 2.2. The “differential drug sensitivity score” value was -2.2 with ES-ZH008; -2.6 with CDS-ZH001-2; 5.5 in the test on CDS-ZH003; 5.1 with ES-ZH016 direct; -4.1 with CDS-ZH001; 2.6 in the test on ES-ZH016. In addition, the “differential drug sensitivity score” value with ES-ZH004 is -3.5.
For the molecule `NC(=O)/C(=C/n1cnc(-c2cc(C(F)(F)F)cc(C(F)(F)F)c2)n1)c1cncnc1` [Eltanexor], the “differential drug sensitivity score” value was -5.7 in the test on CDS-ZH002; -5.9 with CDS-ZH002 direct; -3.8 in the test with ES-ZH001; 0.4 in the test with ES-ZH007; -14.4 with ES-ZH009; 5 in the test on ES-ZH002. For the same molecule, the “differential drug sensitivity score” value with ES-ZH008 was 16.8; with CDS-ZH001-2, 8; in the test on CDS-ZH003, -13.9; in the test on ES-ZH016 direct, 22; in the test on CDS-ZH001 it was 0.5; with ES-ZH016 it was -5.7. Moreover, the “differential drug sensitivity score” value in the test with ES-ZH004 worked out at 14.
With `O=C(CCCCCCC(=O)Nc1ccccc1)NO` [Vorinostat], the “differential drug sensitivity score” value is -3.6 with CDS-ZH002; -0.2 in the test with CDS-ZH002 direct; 9.5 in the test on ES-ZH001; 6.3 in the test on ES-ZH007; 6.6 in the test with ES-ZH009; 8 with ES-ZH002. In addition, the “differential drug sensitivity score” value in the test with ES-ZH008 was 5.1; in the test on CDS-ZH001-2, 0.5; in the test on CDS-ZH003, 3.3; with ES-ZH016 direct, 5.3; in the test on CDS-ZH001, -4; in the test with ES-ZH016, -0.7. The “differential drug sensitivity score” value in the test with ES-ZH004 was found to be 7.3.
For the molecule `CC(C)NCCCn1c(Sc2cc3c(cc2I)OCO3)nc2c(N)ncnc21` [Zelavespib], the “differential drug sensitivity score” value in the test on CDS-ZH002 is -7.7; in the test on CDS-ZH002 direct it was -1.1; in the test with ES-ZH001, 0.8; in the test with ES-ZH007, 0.4; in the test with ES-ZH009 it was 7.3; with ES-ZH002 it was 3.4. The “differential drug sensitivity score” value was 5.8 in the test with ES-ZH008; 3.1 in the test with CDS-ZH001-2; 4.4 in the test on CDS-ZH003; 2.3 in the test on ES-ZH016 direct; 0.5 in the test on CDS-ZH001; -0.6 with ES-ZH016. Also, in the test with ES-ZH004, the “differential drug sensitivity score” value was -2.1.
For `Oc1ccc(/C=C/c2cc(O)cc(O)c2)cc1` [Resveratrol], the “differential drug sensitivity score” value in the test on CDS-ZH002 was -2; with CDS-ZH002 direct it was 0.1; with ES-ZH001 it was 11.6; in the test with ES-ZH007 it was 0.9; in the test with ES-ZH009, 7; with ES-ZH002, 16.5. The “differential drug sensitivity score” value in the test on ES-ZH008 is 13.8; in the test with CDS-ZH001-2, 0; in the test with CDS-ZH003, -4.6; in the test with ES-ZH016 direct, 4.7; with CDS-ZH001 it was 1.4; with ES-ZH016 it was 4.4. For the same molecule, the “differential drug sensitivity score” value in the test with ES-ZH004 was 10.1.
In the case of `S=c1[nH]cnc2nc[nH]c12` [Mercaptopurine], the “differential drug sensitivity score” value in the test on CDS-ZH002 is -1.3; in the test with CDS-ZH002 direct, -1.8; in the test on ES-ZH001, 0.9; with ES-ZH007, -0.4; in the test with ES-ZH009, 7.4; with ES-ZH002 it was 0.3. The “differential drug sensitivity score” value in the test with ES-ZH008 is -1.6; in the test with CDS-ZH001-2 it was 12; in the test with CDS-ZH003 it was -5; with ES-ZH016 direct it was 4.9; in the test on CDS-ZH001 it was 3.8; with ES-ZH016, 2.9. The “differential drug sensitivity score” value in the test with ES-ZH004 was -4.2.
